Laboratory results published in publication PMC6968775, “Assessment of contribution of BCRP to intestinal absorption of various drugs using portal‐systemic blood concentration difference model in mice” (Pharmacology Research & Perspectives, 2020).
Values joined by “and” are separate entries in the source; they are usually repeats but may differ in a detail not shown here. Equal values may be shown once. Where a name gives a salt, the structure may show the parent alone.

Tests used:
BCRP [1] = assay: Human AQBCRP estimated from the clinical data; type: in vivo
[2] = Pharmacokinetics after iv and oral administration, P‐S difference method, wild‐type mice; type: in vivo; conditions: for half-life / AUC(0-inf) / Cmax / Tmax: 1 mg/kg
Experimental: (§1) Male Mdr1a/1b(−/−) and Bcrp(−/−) mice, and WT mice of the same genetic background (FVB) were obtained from Taconic Farms (Germantown, NY, USA). […] Food and water were available ad libitum. All experiments were carried out in accordance with the principles and procedures outlined in the National Institutes of Health Guide for the Care and Use of Laboratory.
(§2) All the mice were fasted overnight with free access to tap water. In the intravenous administration studies, model compounds were administered via the tail vein at doses of 1 mg/kg (n = 3). Following administration, blood samples were collected from the abdominal vein of the anesthetized mice at 0.083, 0.17, 0.5, 1, 2, 4, and 8 hours. […] Following administration, blood samples were taken from the portal and abdominal veins of the anesthetized mice at 0.083, 0.17, 0.5, 1, 2, 4, and 8 hours. The plasma samples were separated by centrifugation at 14 000g for 10 minutes at 4°C and stored at −30°C until analysis.
(§3) After organic layer was evaporated at 60°C, the resultant residues were dissolved in a mobile phase. For the determination of topotecan and sulfasalazine, plasma samples were mixed with acetonitrile, centrifuged at 750 g for 10 minutes at 4°C, and the supernatants were collected. After the evaporation of the supernatants, the residues were dissolved in a mobile phase, and acidified with phosphoric acid for topotecan. All drugs were analyzed by HPLC system (Shimadzu LC‐10AS pump, Shimadzu SIL‐10A autosampler) equipped with a reverse‐phase column (COSMOSIL 5C18‐AR‐II, 3.5‐μm […], 4.6 × 150 mm).
(§4) Elimination rate constant (k e) was determined by the least squares regression analysis of plasma concentration vs time curve. Elimination half‐life (t 1/2) was calculated using Eq.1:(1) t1/2=ln2/ke
(§5) Area under plasma concentration‐time curve (AUC) and area under the first moment curve (AUMC) from time 0 to infinity were calculated by trapezoidal rule.
(§6) Absorption rate constant (k a) after oral administration was calculated by the nonlinear least squares fitting with program MULTI.12
(§7) BA was calculated by Eq.5:(7) BA=AUCoral/AUCiv×Doseiv/Doseoral×100 where AUCoral is AUC after oral administration. Doseiv and Doseoral are administered dose in the intravenous and oral administration study, respectively.
(§8) Hepatic availability (F h) was calculated by Eq.6:(8) Fh=F/Fa×Fg

BCRP [3] = conditions: calculated from k a in WT, Bcrp(−/−) and Mdr1a/1b(−/−) mice (Eq. 9)
[4] = Pharmacokinetics after iv and oral administration, P‐S difference method, Mdr1a/1b(−/−) mice; type: in vivo
Experimental: as §1, §2, §3, §4, §5, §6, §7, §8

P‐gp [5] = tested on: P‐gp
[6] = cited from earlier work
P‐gp [7] = conditions: Caco‐2 permeability study; unpublished data; ref Fujita et al, manuscript in preparation; cited from earlier work
[8] = Pharmacokinetics after iv and oral administration, P‐S difference method, Bcrp(−/−) mice; type: in vivo
Experimental: as §1, §2, §3, §4, §5, §6, §7, §8

[9] = Blood/plasma concentration ratio (R b) in fresh whole blood; type: in vitro ADME, FVB mice; conditions: fresh whole blood, FVB mouse whole blood, 37°C
Experimental: Similarly, the model compounds were added to plasma, and reference blood samples were obtained according to the same procedure. These concentrations of drugs in each sample were analyzed using HPLC (C B and C P, respectively). R b value was calculated by dividing C B by C P.

[10] = male, FVB (wild-type), mouse, portal vein plasma, po
[11] = male, FVB (wild-type), mouse, systemic plasma (abdominal vein), po
[12] = wild‐type mice, p.o. (ciprofloxacin 1, nitrofurantoin 2, topotecan 1, sulfasalazine 5 mg/kg)
[13] = Mdr1a/1b(−/−) mice, p.o. (ciprofloxacin 1, nitrofurantoin 2, topotecan 1, sulfasalazine 5 mg/kg)
[14] = male, Mdr1a/1b(−/−) (FVB background), mouse, portal vein plasma, po, 1 mg/kg
[15] = male, Mdr1a/1b(−/−) (FVB background), mouse, systemic plasma (abdominal vein), po, 1 mg/kg
[16] = Bcrp(−/−) mice, p.o. (ciprofloxacin 1, nitrofurantoin 2, topotecan 1, sulfasalazine 5 mg/kg)
[17] = male, Bcrp(−/−) (FVB background), mouse, portal vein plasma, po, 1 mg/kg
[18] = male, Bcrp(−/−) (FVB background), mouse, systemic plasma (abdominal vein), po, 1 mg/kg

With `CC[C@@]1(O)C(=O)OCc2c1cc1n(c2=O)Cc2cc3c(CN(C)C)c(O)ccc3nc2-1` [topotecan, Topotecan HCl] the “human AQBCRP” value (BCRP [1]) was 0.58, the “k a, wt” value ([2]; Table 5 summary, WT mice, oral administration) was 3.18 and the “(F a F g) wt” value ([2]; as fraction, WT mice, oral administration) was 0.57. For the same compound, the clearance ([2]; male, FVB (wild-type), mouse, plasma (systemic, abdominal vein), wild‐type mice, iv 1 mg/kg, read-out: CL tot (converted)) was 36.7 mL/min/kg, the Vd ([2]; male, FVB (wild-type), mouse, plasma (systemic, abdominal vein), wild‐type mice, iv 1 mg/kg, read-out: Vdss) was 2.59 L/kg and the half-life ([2]; male, FVB (wild-type), mouse, plasma, iv, wild‐type mice, iv 1 mg/kg) was 75.6 min. It also gave an AUC(0-inf) ([2]; male, FVB (wild-type), mouse, plasma, iv, wild‐type mice, iv 1 mg/kg, read-out: AUC 0→∞) of 0.994 µM·h, a Cmax [2, 10] of 720 nM and a Tmax [2, 10] of 4.8 min. The AUC(0-inf) ([2]; male, FVB (wild-type), mouse, portal vein plasma, po, wild‐type mice, p.o. (ciprofloxacin 1, nitrofurantoin 2, topotecan 1, sulfasalazine 5 mg/kg), portal vein (pv) plasma, read-out: AUC 0→∞ (AUCpv)) was 0.577 µM·h, the Cmax [2, 11] was 218 nM and the Tmax [2, 11] was 30 min. It also gave a half-life ([2]; male, FVB (wild-type), mouse, systemic plasma (abdominal vein), po, wild‐type mice, p.o. (ciprofloxacin 1, nitrofurantoin 2, topotecan 1, sulfasalazine 5 mg/kg), systemic (sys) plasma) of 62.4 min, an AUC(0-inf) ([2]; male, FVB (wild-type), mouse, systemic plasma (abdominal vein), po, wild‐type mice, p.o. (ciprofloxacin 1, nitrofurantoin 2, topotecan 1, sulfasalazine 5 mg/kg), systemic (sys) plasma, read-out: AUC 0→∞ (AUCsys)) of 0.37 µM·h and a F h [2, 12] of 65.6%. For the same compound, the k a [2, 12] was 3.18 h⁻¹, the “F a F g” value ([2]; wild‐type mice, p.o. (ciprofloxacin 1, nitrofurantoin 2, topotecan 1, sulfasalazine 5 mg/kg), P‐S difference method) was 57% and 56.8% and the “AQ bcrp (in vivo)” value (BCRP [3]) was 0.35. It also gave a F h [4, 13] of 54.8%, a k a [4, 13] of 3.68 h⁻¹ and a BA ([4]; Mdr1a/1b(−/−) mice, p.o. (ciprofloxacin 1, nitrofurantoin 2, topotecan 1, sulfasalazine 5 mg/kg) vs iv 1 mg/kg) of 34.9%. The “F a F g” value ([4]; Mdr1a/1b(−/−) mice, p.o. (ciprofloxacin 1, nitrofurantoin 2, topotecan 1, sulfasalazine 5 mg/kg), P‐S difference method) was 63.8%, the “k a, P‐gp” value ([4]; Table 5 summary, Mdr1a/1b(−/−) mice, oral administration) was 3.68 and the “(F a F g)P‐gp” value ([4]; as fraction, Mdr1a/1b(−/−) mice, oral administration) was 0.64. It also gave a clearance ([4]; male, FVB Mdr1a/1b(−/−), mouse, plasma (systemic, abdominal vein), Mdr1a/1b(−/−) mice, iv 1 mg/kg, read-out: CL tot (converted)) of 35.5 mL/min/kg, a Vd ([4]; male, FVB Mdr1a/1b(−/−), mouse, plasma (systemic, abdominal vein), Mdr1a/1b(−/−) mice, iv 1 mg/kg, read-out: Vdss) of 2.19 L/kg and an AUC(0-inf) ([4]; male, FVB Mdr1a/1b(−/−), mouse, portal vein plasma, po, 1 mg/kg, read-out: AUC 0→∞ (AUCpv)) of 0.589 µM·h. For the same compound, the AUC(0-inf) ([4]; male, FVB Mdr1a/1b(−/−), mouse, systemic plasma (abdominal vein), po, 1 mg/kg, read-out: AUC 0→∞ (AUCsys)) was 0.358 µM·h, the half-life ([4]; male, Mdr1a/1b(−/−) (FVB background), mouse, plasma, Mdr1a/1b(−/−) mice, iv 1 mg/kg) was 64.8 min and the AUC(0-inf) ([4]; male, Mdr1a/1b(−/−) (FVB background), mouse, plasma, Mdr1a/1b(−/−) mice, iv 1 mg/kg, read-out: AUC 0→∞) was 1.02 µM·h. It also gave a Cmax [4, 14] of 664 nM, a Tmax [4, 14] of 4.8 min and a Cmax [4, 15] of 242 nM. For the same compound, the Tmax [4, 15] was 10.2 min, the half-life [4, 15] was 73.8 min and the “AQ P‐gp (in vivo)” value (P‐gp [5]; calculated from k a in WT, Bcrp(−/−) and Mdr1a/1b(−/−) mice (Eq. 10)) was 0.08. For the same compound, the “R P‐gp (rate of P‐gp contribution)” value (P‐gp [5]; in vivo (mice), calculated from F a F g in WT, Bcrp(−/−) and Mdr1a/1b(−/−) mice (Eq. 12)) was 0.06, the “BA after oral administration” value ([6]; human clinical studies) was “about 40%” and the “human BA” value ([6]; human) was 40%. The “oral BA, patients heterozygous variant for the BCRP SNP vs normal BCRP” value ([6]; human) was 1.3 fold, the “BA when GF120918 is orally coadministered” value ([6]; human, with GF120918 (BCRP inhibitor)) was 100% and the “AQp‐gp in vitro (Caco‐2)” value (P‐gp [7]) was 0.14. For the same compound, the F h [8, 16] was 74.0%, the k a [8, 16] was 5.18 h⁻¹ and the BA ([8]; Bcrp(−/−) mice, p.o. (ciprofloxacin 1, nitrofurantoin 2, topotecan 1, sulfasalazine 5 mg/kg) vs iv 1 mg/kg) was 76.3%. The “F a F g” value ([8]; Bcrp(−/−) mice, p.o. (ciprofloxacin 1, nitrofurantoin 2, topotecan 1, sulfasalazine 5 mg/kg), P‐S difference method) was 103%, the “k a, bcrp” value ([8]; Table 5 summary, Bcrp(−/−) mice, oral administration) was 5.18 and the “(F a F g)bcrp” value ([8]; as fraction, Bcrp(−/−) mice, oral administration) was 1.03. For the same compound, the half-life ([8]; male, Bcrp(−/−) (FVB background), mouse, plasma, iv, 1 mg/kg, Bcrp(−/−) mice, iv 1 mg/kg) was 89.4 min, the Cmax [8, 17] was 855 nM and the Tmax [8, 17] was 4.8 min. The Cmax [8, 18] was 476 nM, the Tmax [8, 18] was 10.2 min and the AUC(0-inf) ([8]; male, FVB Bcrp(−/−), mouse, plasma (systemic, abdominal vein), iv, 1 mg/kg, Bcrp(−/−) mice, iv 1 mg/kg, read-out: AUC 0→∞) was 1.49 µM·h. It also gave a clearance ([8]; male, FVB Bcrp(−/−), mouse, plasma (systemic, abdominal vein), Bcrp(−/−) mice, iv 1 mg/kg, read-out: CL tot (converted)) of 24.5 mL/min/kg, a Vd ([8]; male, FVB Bcrp(−/−), mouse, plasma (systemic, abdominal vein), Bcrp(−/−) mice, iv 1 mg/kg, read-out: Vdss) of 2.21 L/kg and an AUC(0-inf) ([8]; male, FVB Bcrp(−/−), mouse, portal vein plasma, po, 1 mg/kg, Bcrp(−/−) mice, p.o. (ciprofloxacin 1, nitrofurantoin 2, topotecan 1, sulfasalazine 5 mg/kg), portal vein (pv) plasma, read-out: AUC 0→∞ (AUCpv)) of 1.51 µM·h. The AUC(0-inf) ([8]; male, FVB Bcrp(−/−), mouse, portal vein plasma, po, Bcrp(−/−) mice, p.o. (ciprofloxacin 1, nitrofurantoin 2, topotecan 1, sulfasalazine 5 mg/kg), portal vein (pv) plasma, read-out: AUC 0→∞ (AUCpv)) was 1.51 µM·h, the half-life ([8]; male, FVB Bcrp(−/−), mouse, systemic plasma (abdominal vein), po, 1 mg/kg, Bcrp(−/−) mice, p.o. (ciprofloxacin 1, nitrofurantoin 2, topotecan 1, sulfasalazine 5 mg/kg), systemic (sys) plasma) was 88.2 min and the AUC(0-inf) ([8]; male, FVB Bcrp(−/−), mouse, systemic plasma (abdominal vein), po, 1 mg/kg, Bcrp(−/−) mice, p.o. (ciprofloxacin 1, nitrofurantoin 2, topotecan 1, sulfasalazine 5 mg/kg), systemic (sys) plasma, read-out: AUC 0→∞ (AUCsys)) was 1.14 µM·h. The AUC(0-inf) ([8]; male, FVB Bcrp(−/−), mouse, systemic plasma (abdominal vein), po, Bcrp(−/−) mice, p.o. (ciprofloxacin 1, nitrofurantoin 2, topotecan 1, sulfasalazine 5 mg/kg), systemic (sys) plasma, read-out: AUC 0→∞ (AUCsys)) was 1.14 µM·h, the “AUC pv and AUC sys after oral administration, Bcrp(−/−) mice vs WT mice” value ([8]; oral administration) was “approximately 3 fold” and the blood plasma ratio at 15 min, 1 µg/mL [9] was 0.94 ± 0.05.
